Tests used:
[1] = Cytotoxicity in human MCF10A cells assessed as cell viability incubated for 4 days by MTT assay; format: cell-based, MCF-10A; set-up: concentration or dose not given beside the values; conditions: read-out: Activity
NCI-H460 [2] = assay: Antiproliferative activity against human NCI-H460 cells after 48 hrs by propidium iodide fluorescence assay; format: functional, cell-based; conditions: NCI-H460, 48 h
MIA PaCa-2 = assay: Antiproliferative activity against human MIAPaCa2 cells after 48 hrs by propidium iodide fluorescence assay; format: functional, cell-based; conditions: MIA PaCa-2, 48 h
A-375 = assay: Antiproliferative activity against human A375 cells after 48 hrs by propidium iodide fluorescence assay; format: functional, cell-based; conditions: A-375, 48 h
PANC-1 = assay: Antiproliferative activity against human PANC1 cells after 48 hrs by propidium iodide fluorescence assay; format: functional, cell-based; conditions: PANC-1, 48 h
HT-29 = assay: Antiproliferative activity against human HT-29 cells after 48 hrs by propidium iodide fluorescence assay; format: functional, cell-based; conditions: HT-29, 48 h
NCI-H460 [3] = assay: Cell cycle arrest in human NCI-H460 cells assessed as apoptotic cells at 0.2 uM after 24 hrs by propidium iodide staining-based flow cytometric analysis (reference value: 1.55%); format: functional
[4] = molecular target: Epidermal growth factor receptor (Homo sapiens, UniProt P00533); assay: Inhibition of His6-tagged EGFR cytoplasmic domain (645 to 1186 residues) (unknown origin) expressed in baculovirus infected Sf9 insect cells after 10 mins by DELFIA/time-resolved fluorometry
NCI-H460 [5] = assay: Cell cycle arrest in human NCI-H460 cells assessed as accumulation of cells at G2 phase at 0.2 uM after 24 hrs by propidium iodide staining-based flow cytometric analysis (reference value: 10%); format: functional
NCI-H460 [6] = assay: Cell cycle arrest in human NCI-H460 cells assessed as accumulation of cells at S phase at 0.2 uM after 24 hrs by propidium iodide staining-based flow cytometric analysis (reference value: 42.61%); format: functional
NCI-H460 [7] = assay: Induction of apoptosis in human NCI-H460 cells assessed as late apoptotic cells at 0.2 uM after 24 hrs by Annexin V-FITC/propidium iodide staining-based flow cytometric analysis relative to control; format: functional
NCI-H460 [8] = assay: Induction of apoptosis in human NCI-H460 cells assessed as early apoptotic cells at 0.2 uM after 24 hrs by Annexin V-FITC/propidium iodide staining-based flow cytometric analysis relative to control; format: functional
NCI-H460 [9] = assay: Cell cycle arrest in human NCI-H460 cells assessed as accumulation of cells at G1 phase at 0.2 uM after 24 hrs by propidium iodide staining-based flow cytometric analysis (reference value: 47.39%); format: functional
NCI-H460 [10] = assay: Induction of apoptosis in human NCI-H460 cells assessed as necrotic cells at 0.2 uM after 24 hrs by Annexin V-FITC/propidium iodide staining-based flow cytometric analysis relative to control; format: functional
[11] = molecular target: Serine/threonine-protein kinase Chk2 (Homo sapiens, UniProt O96017); assay: Inhibition of CHK2 (unknown origin)
[12] = molecular target: Vascular endothelial growth factor receptor 1 (Homo sapiens, UniProt P17948); assay: Inhibition of VEGFR1 (unknown origin)
Sequence of Vascular endothelial growth factor receptor 1 (P17948 whole entry): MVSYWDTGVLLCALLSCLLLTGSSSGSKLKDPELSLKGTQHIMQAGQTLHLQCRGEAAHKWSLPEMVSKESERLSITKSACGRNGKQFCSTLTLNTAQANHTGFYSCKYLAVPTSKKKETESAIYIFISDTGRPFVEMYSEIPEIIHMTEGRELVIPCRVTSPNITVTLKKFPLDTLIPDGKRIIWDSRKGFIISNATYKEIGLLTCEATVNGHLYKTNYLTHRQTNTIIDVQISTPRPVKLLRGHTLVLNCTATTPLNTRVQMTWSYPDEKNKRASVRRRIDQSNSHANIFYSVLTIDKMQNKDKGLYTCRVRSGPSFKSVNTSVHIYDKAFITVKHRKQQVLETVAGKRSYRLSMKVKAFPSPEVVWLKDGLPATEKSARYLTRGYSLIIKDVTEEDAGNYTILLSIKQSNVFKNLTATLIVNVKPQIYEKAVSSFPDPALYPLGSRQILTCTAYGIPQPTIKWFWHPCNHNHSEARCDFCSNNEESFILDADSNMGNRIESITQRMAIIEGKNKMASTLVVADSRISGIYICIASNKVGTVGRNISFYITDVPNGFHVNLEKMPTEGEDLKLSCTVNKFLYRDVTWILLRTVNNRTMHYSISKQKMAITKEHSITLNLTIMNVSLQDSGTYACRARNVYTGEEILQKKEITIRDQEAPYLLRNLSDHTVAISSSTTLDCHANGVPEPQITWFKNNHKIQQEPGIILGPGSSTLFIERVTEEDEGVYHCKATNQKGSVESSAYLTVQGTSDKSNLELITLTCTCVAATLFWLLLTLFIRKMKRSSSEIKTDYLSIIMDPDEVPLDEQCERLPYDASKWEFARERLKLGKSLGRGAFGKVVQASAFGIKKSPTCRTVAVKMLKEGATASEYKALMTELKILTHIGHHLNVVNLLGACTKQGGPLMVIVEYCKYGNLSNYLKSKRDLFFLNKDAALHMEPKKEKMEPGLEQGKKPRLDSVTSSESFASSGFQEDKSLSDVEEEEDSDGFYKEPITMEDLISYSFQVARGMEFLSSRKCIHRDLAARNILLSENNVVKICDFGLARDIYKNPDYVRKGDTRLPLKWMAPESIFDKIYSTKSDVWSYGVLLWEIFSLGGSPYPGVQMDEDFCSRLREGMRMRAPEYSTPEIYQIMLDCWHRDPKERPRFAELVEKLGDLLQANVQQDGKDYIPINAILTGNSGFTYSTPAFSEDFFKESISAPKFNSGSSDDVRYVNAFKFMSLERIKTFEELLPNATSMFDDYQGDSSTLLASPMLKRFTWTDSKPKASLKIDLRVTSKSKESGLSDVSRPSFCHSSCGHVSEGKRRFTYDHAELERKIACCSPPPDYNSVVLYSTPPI

Sequence of Epidermal growth factor receptor (P00533 whole entry, the tested form may be a part): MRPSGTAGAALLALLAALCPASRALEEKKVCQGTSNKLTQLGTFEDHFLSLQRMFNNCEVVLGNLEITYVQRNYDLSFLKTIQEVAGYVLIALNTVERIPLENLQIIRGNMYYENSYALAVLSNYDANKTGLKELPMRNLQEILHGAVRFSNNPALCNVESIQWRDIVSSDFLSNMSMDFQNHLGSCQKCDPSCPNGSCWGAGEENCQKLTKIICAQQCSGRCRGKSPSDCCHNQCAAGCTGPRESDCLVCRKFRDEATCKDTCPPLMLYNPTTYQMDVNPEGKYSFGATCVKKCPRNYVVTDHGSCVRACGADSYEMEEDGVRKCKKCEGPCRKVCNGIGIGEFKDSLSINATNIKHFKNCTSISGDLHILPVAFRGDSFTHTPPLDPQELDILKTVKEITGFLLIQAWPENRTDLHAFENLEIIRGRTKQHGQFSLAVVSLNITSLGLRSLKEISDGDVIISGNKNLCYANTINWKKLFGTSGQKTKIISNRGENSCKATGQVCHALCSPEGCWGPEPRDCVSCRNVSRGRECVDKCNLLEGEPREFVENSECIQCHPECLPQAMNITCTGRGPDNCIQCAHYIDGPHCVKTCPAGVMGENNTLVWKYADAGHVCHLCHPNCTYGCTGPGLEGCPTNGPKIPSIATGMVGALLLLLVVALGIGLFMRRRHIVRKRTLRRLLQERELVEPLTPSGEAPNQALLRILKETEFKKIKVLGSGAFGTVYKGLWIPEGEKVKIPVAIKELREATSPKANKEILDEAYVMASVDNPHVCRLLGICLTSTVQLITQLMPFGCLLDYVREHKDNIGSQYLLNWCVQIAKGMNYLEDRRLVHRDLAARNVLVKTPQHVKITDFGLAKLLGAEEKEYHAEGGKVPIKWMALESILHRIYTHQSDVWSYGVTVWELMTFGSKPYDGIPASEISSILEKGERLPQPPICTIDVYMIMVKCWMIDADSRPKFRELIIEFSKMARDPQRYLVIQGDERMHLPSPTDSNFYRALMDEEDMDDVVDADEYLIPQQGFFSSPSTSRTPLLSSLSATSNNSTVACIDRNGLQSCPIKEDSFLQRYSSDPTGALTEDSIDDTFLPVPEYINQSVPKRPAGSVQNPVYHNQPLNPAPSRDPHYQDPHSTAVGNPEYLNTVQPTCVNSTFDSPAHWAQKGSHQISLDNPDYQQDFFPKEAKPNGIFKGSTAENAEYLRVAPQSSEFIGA
Sequence of Serine/threonine-protein kinase Chk2 (O96017 whole entry): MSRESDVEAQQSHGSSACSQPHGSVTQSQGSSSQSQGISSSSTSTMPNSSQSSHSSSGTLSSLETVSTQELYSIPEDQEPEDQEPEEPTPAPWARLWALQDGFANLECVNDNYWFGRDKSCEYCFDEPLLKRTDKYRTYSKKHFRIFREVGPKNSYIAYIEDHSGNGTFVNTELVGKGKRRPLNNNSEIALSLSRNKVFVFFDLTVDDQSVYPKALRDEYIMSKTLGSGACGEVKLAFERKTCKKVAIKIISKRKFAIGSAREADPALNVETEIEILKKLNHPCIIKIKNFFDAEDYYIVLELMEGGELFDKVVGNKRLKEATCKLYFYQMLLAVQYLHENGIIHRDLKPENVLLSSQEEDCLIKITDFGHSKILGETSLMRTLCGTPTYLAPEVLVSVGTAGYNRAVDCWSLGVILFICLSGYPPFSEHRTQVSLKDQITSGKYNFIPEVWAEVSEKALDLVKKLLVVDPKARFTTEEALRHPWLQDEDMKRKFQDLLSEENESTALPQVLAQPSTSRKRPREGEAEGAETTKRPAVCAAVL

| IC50 (NCI-H460 [2]) [µM] | IC50 (MIA PaCa-2) [µM] | IC50 (A-375) [µM] | IC50 (PANC-1) [µM] | IC50 (HT-29) [µM] | IC50 [4] [µM] | IC50 [11] [µM] | IC50 [12] [µM] | Compound | viability at 96 h [1] [%] | Activity (NCI-H460 [3]) [%] | Activity (NCI-H460 [5]) [%] | Activity (NCI-H460 [6]) [%] | Activity (NCI-H460 [7]) [%] | Activity (NCI-H460 [8]) [%] | Activity (NCI-H460 [9]) [%] | Activity (NCI-H460 [10]) [%] |
| --- | --- | --- | --- | --- | --- | --- | --- | --- | --- | --- | --- | --- | --- | --- | --- | --- |
| 6.7 | 6.2 | 19.4 | 5.9 | 7.9 |  |  |  | O=C(/C=C/c1ccc(Cl)cc1)c1ccc(NC(=O)c2cc3cc4ccccc4nc3s2)cc1 | > 91 |  |  |  |  |  |  |  |
| 0.9 | 0.9 | 2 | 1.2 | 1 | 0.5 |  |  | COc1ccc(/C=C/C(=O)c2ccc(NC(=O)c3cc4cc5cc(C)ccc5nc4s3)cc2)cc1OC | > 91 | 15.72 | 38.31 | 17.45 | 9.08 | 7.22 | 44.24 | 2.31 |
|  |  |  |  |  |  | 1.7 | 0.54 | CCCCNc1ncnc2c1sc1nc3ccccc3cc12 |  |  |  |  |  |  |  |  |
| 0.2 | 0.8 | 1.6 | 1 | 0.5 | 0.7 |  |  | COc1ccc2nc3sc(C(=O)Nc4ccc(C(=O)/C=C/c5ccc(OC)c(OC)c5)cc4)cc3cc2c1 | > 91 |  |  |  |  |  |  |  |
| 9.7 | 6.2 | 28.4 | 6.7 | 9.4 |  |  |  | COc1cccc(/C=C/C(=O)c2ccc(NC(=O)c3cc4cc5ccccc5nc4s3)cc2)c1 | > 91 |  |  |  |  |  |  |  |
| 1.2 | 0.5 | 2.4 |  | 1.1 | 1.6 |  |  | COc1ccc(/C=C/C(=O)c2ccc(NC(=O)c3cc4cc5ccccc5nc4s3)cc2)cc1OC | > 91 |  |  |  |  |  |  |  |
| 5.5 | 4.9 | > 50 | 4.5 | 6.7 | 2.8 |  |  | COc1cccc(/C=C/C(=O)c2ccc(NC(=O)c3cc4cc5cc(OC)ccc5nc4s3)cc2)c1 | > 91 |  |  |  |  |  |  |  |
| 9.2 | 9.4 | 39.6 | 9.6 | 11.6 |  |  |  | Cc1ccc2nc3sc(C(=O)Nc4ccc(C(=O)/C=C/c5ccc(Cl)cc5)cc4)cc3cc2c1 | > 91 |  |  |  |  |  |  |  |
| 6.5 | 5.9 | 16.7 | 5.5 | 7.8 |  |  |  | COc1ccc2nc3sc(C(=O)Nc4ccc(C(=O)/C=C/c5ccccc5)cc4)cc3cc2c1 | > 91 |  |  |  |  |  |  |  |
| 3.6 | 3.7 | 17.6 | 3.5 | 4.2 | 2.9 |  |  | COc1cccc(/C=C/C(=O)c2ccc(NC(=O)c3cc4cc5cc(C)ccc5nc4s3)cc2)c1 | > 91 |  |  |  |  |  |  |  |
|  | 12.5 | > 50 |  | 14.9 |  |  |  | O=C(/C=C/c1ccccc1)c1ccc(NC(=O)c2cc3cc4ccccc4nc3s2)cc1 | > 91 |  |  |  |  |  |  |  |
| 3.2 | 2 | 6.4 | 2.2 | 3.7 | 3.2 |  |  | COc1cc(/C=C/C(=O)c2ccc(NC(=O)c3cc4cc5cc(C)ccc5nc4s3)cc2)cc(OC)c1OC | > 91 |  |  |  |  |  |  |  |
| 9.7 | 9.2 | 25.9 | 9.5 | 10.4 |  |  |  | Cc1ccc2nc3sc(C(=O)Nc4ccc(C(=O)/C=C/c5ccccc5)cc4)cc3cc2c1 | > 91 |  |  |  |  |  |  |  |
| 12.2 | 14.4 | 44.6 | 13.8 | 17.2 |  |  |  | COc1ccc2nc3sc(C(=O)Nc4ccc(C(=O)/C=C/c5ccc(Cl)cc5)cc4)cc3cc2c1 | > 91 |  |  |  |  |  |  |  |
| 2.7 | 1.7 | 4.2 | 1.4 | 2.5 | 1.2 |  |  | COc1cc(/C=C/C(=O)c2ccc(NC(=O)c3cc4cc5ccccc5nc4s3)cc2)cc(OC)c1OC | > 91 |  |  |  |  |  |  |  |
| 1.9 | 1 | 3.8 | 1.4 | 1.4 | 1.4 |  |  | COc1ccc2nc3sc(C(=O)Nc4ccc(C(=O)/C=C/c5cc(OC)c(OC)c(OC)c5)cc4)cc3cc2c1 | > 91 |  |  |  |  |  |  |  |
